Test results from patent US20240156931A1, “COLLECTION AND USES OF TISSUE RESIDENT INTERSTITIAL EXTRACELLULAR VESICLES” (priority 2022, published 2024).
Entries after “also recorded” stand apart in the source; their conditions may differ.

Key:
[1] = test system: eGFP-4T1 cells; assay: Mitophagy induction / mitochondrial EV fluorescent labelling (CCCP perturbation); type: cell-based, murine
Text: To further verify that PINK1-associated EVs contained mitochondrial components via a orthogonal methods, we performed a functional perturbation in vitro to induce the cellular release of mitophagy-associated EVs. We treated sub-confluent eGFP-4T1 cells with a mitochondrial depolarization protonophore carbonyl cyanide m-chlorophenyl hydrazone (CCCP) (Villa et al., 2017) and added a permanent fluorescent label for active mitochondrial membranes with MitoTracker Deep Red (MTDR) (Chazotte, 2011). After 48 h, the cells reached 70% confluency and were harvested by differential ultracentrifugation.
Two 4T1-eGFP cell cultures were plated at 10^6 cells/ml. Untreated cells were left to grow for 5 days. Treated cells were stimulated with 10 nM of carbonyl cyanide 3-chlorophenylhydrazone (CCCP) (Sigma) and left to grow for 5 days. The supernatants were collected and EVs fractions were isolated by differential ultracentrifugation. The resulting 100K EVs were probed for anti-ARIH1 (Santa Cruz) by Western blot.
Two 4T1-eGFP-Puro cell cultures were plated at 10^6 cells/ml. Untreated cells were left to grow for 48 h. Treated cells were stimulated with 10 nM and 10 μM of CCCP and left to grow for 48 h. At 48 h, 50 nM of MitoTracker Deep Red (MTDR) (Thermo Fisher) was added to the media and left to sit overnight in the cell incubator. The supernatants were collected and EVs were isolated by differential ultracentrifugation. EVs subpopulations were plated at 30 μl and scanned for peak emission fluorescent intensity fluorescence at […] (absorbance/emission) for GFP and 635/675 nm (absorbance/emission) for MTDR on a Tecan safire2 plate reader.

[2] = test system: irradiated tumor; details: mice; cited from earlier work
[3] = test system: Ovarian Cancer tumor cells; assay: EVs released by ovarian cancer cells undergoing cisplatin treatment (Western blot, RPPA); type: cell-based
Procedure: A) Ovarian Cancer tumor cells are treated with pulses of cisplatin, a common ovarian cancer therapeutic. EVs released by the cancer cells undergoing cisplatin treatment are isolated by differential ultracentrifugation and analyzed via Western Blot, mass spectrometry, and reverse phase protein array in order to determine potential pathways and markers that are indicative of cancer resistance. […] Additionally, the subpopulations are present with typical EV related tetraspanin markers.
In an embodiment, RPPA assays previously used for tissue lysates can be adapted for use with EV subpopulations.

N#CC(C#N)=NNc1cccc(Cl)c1 [CCCP, carbonyl cyanide m-chlorophenyl hydrazone]
MitoTracker Deep Red (MTDR) in 100K EVs ([1]; MTDR fluorescence normalized to GFP by EV subpopulation): increased release of 100K EVs containing active mitochondrial molecules; also recorded: increasing levels
ARIH1 presence in the 100K EVs ([1]; compared to no treatment, Western blot): induced ARIH1 presence
release of CD81+/PINK1+ 100K EVs ([1]; increasing CCCP up to 10 μM (cytotoxic level), 48 h, Western blot): release of increased Parkin-independent mitophagy-containing 100K EVs; also recorded: increased release of CD81+/PINK1+ 100K EVs in a dose dependent manner; also recorded: increased export of PINK1 and MitoTracker

CCN(CC)CCCC(C)Nc1ccnc2cc(Cl)ccc12 (centres unmarked) [chloroquine]
response to radiation therapy [2]: improves response

N.N.[Cl][Pt][Cl] [cisplatin]
RPPA ratio pre to post treatment, EGFR (pY1068) and Bax pathways ([3]; 2K EV population): greatly increased
RPPA ratio pre to post treatment, Akt ([3]; 10K EV population): 11 fold
RPPA pathways altered after treatment ([3]; 100K EV population): few pathways were altered
LC3-I/II (autophagy) and PD-L1 in EV subpopulations, Western blot ([3]; post-treatment EVs compared to pre-treatment): upregulating
